In PMC6155239, “Targeting PFKFB3 radiosensitizes cancer cells and suppresses homologous recombination” (Nature Communications, 2018):

Key:
[1] = biological target: T1, FAK (Homo sapiens, UniProt Q05397); assay: KINOMEscan; assay type: binding; details: 2000 nM; read-out: Percent Control
T1 construct: purchased DiscoverX (Eurofins) KINOMEscan / scanEDGE, inferred from the naming style

[2] = system: BJ RAS cells; assay: Clonogenic survival, BJ RAS; assay type: cell-based; details: with and without IR (2 Gy)
Method: U2OS cells were transfected with indicated siRNAs and 24 h later exposed to IR (2 Gy) or left untreated and allowed to recover for 4 h. One-hundred U2OS cells were then seeded into 6-well plates and after 10 days colonies were fixed and stained with 4% methylene blue (Sigma Aldrich) in methanol. BJ TERT (500 cells), BJ RAS (200 cells), or U2OS (200 cells) were seeded into 6-well plates 24 h prior to treatment with inhibitors as indicated or vehicle for 24 h and then subjected to IR (2 Gy). The inhibitors were washed out 72 h later and colonies were fixed 4 days (BJ RAS) or 7 days (BJ TERT) later with 4% methylene blue in methanol.

T1 sequence (Q05397 whole entry): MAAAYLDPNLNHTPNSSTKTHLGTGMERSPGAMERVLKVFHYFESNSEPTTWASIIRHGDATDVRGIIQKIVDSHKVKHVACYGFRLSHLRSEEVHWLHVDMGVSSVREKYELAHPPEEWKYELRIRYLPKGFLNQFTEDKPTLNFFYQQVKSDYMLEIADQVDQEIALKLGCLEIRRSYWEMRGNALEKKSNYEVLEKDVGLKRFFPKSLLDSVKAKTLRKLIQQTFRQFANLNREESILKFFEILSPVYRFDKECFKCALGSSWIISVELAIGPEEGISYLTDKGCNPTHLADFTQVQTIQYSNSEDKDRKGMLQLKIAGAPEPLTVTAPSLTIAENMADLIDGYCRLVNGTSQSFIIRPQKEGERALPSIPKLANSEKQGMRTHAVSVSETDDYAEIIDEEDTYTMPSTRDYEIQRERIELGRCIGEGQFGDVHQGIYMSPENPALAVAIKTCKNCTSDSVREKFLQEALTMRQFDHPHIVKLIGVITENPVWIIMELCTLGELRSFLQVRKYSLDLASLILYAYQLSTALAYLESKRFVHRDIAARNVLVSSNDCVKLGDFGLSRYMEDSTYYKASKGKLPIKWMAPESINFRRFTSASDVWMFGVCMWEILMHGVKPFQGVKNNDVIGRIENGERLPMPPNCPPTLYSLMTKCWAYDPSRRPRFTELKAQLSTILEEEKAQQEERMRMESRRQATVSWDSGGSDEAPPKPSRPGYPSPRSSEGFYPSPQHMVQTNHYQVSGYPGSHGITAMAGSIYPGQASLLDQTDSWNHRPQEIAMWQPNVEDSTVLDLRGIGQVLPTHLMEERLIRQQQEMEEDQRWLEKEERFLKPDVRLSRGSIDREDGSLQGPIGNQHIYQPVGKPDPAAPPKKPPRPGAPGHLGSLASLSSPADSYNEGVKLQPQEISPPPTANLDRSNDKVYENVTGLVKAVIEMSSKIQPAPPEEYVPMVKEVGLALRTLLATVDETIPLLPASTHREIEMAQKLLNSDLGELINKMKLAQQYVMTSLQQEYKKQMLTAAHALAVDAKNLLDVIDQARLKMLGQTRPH

Structure (SMILES) | remaining binding at 2 µM [1] [%] | clonogenic survival of BJ RAS (in words) [2]
O=C(O)c1ccc(NS(=O)(=O)c2cccc(-c3cc(F)ccc3O)c2)cc1O [KAN0438241, 4-{[(5′-Fluoro-2′-hydroxybiphenyl-3-yl)sulfonyl]amino}-2-hydroxybenzoic acid] | 96 | –
O=C(OCCO)c1ccc(NS(=O)(=O)c2cccc(-c3cc(F)ccc3O)c2)cc1O [KAN0438757, 2-Hydroxyethyl-4-{[(5′-fluoro-2′-hydroxybiphenyl-3-yl)sulfonyl]amino}-2-hydroxybenzoate] | – | decreased clonogenic survival
